ChEMBL document CHEMBL5584358, “Fungal Coculture of Herpotrichia sp. and Trametes versicolor Induces Production of Diverse Metabolites with Anti-Parkinson's Neuroprotective Activity” (J Nat Prod, 2024)
Calls of active or inactive are those of the source. The rule behind the calls is not given here.

Experiments:
[1] = tested on: PC-12; test: Cytotoxicity against rat PC12 cells assessed as effect on cell viability at 20 uM measured after 24 hrs by CCK-8 assay; assay type: toxicity, cell-based; conditions: pc-12, 24 h
[2] = tested on: PC-12; test: Neuroprotective activity against MPP+-induced rat PC12 cell death assessed as cell viability at 20 uM preincubated for 1 hr followed by MPP+ addition and measured after 24 hrs by CCK-8 assay (reference value: 57%); assay type: functional; conditions: time 25 hrs, read-out: Activity
[3] = tested on: PC-12; test: Neuroprotective activity against MPP+-induced rat PC12 cell death assessed as increase in cell viability at […] preincubated for 1 hr followed by MPP+ addition and measured after 24 hrs by CCK-8 assay; assay type: functional, cell-based; conditions: time 25.0 hrs
[4] = tested on: PC-12; test: Neuroprotective activity against MPP+-induced rat PC12 cell death assessed as upregulation of Bach2 gene expression at 1 to 10 uM preincubated for 1 hr followed by MPP+ addition and measured after 24 hrs by RNA sequencing analysis relative to control; assay type: functional; conditions: dose 1-10 µM; time 25 hrs
[5] = tested on: PC-12; test: Neuroprotective activity against MPP+-induced rat PC12 cell death assessed as upregulation of Gpt gene expression at 1 to 10 uM preincubated for 1 hr followed by MPP+ addition and measured after 24 hrs by RNA sequencing analysis relative to control; assay type: functional; conditions: dose 1-10 µM; time 25 hrs
[6] = tested on: PC-12; test: Neuroprotective activity against MPP+-induced rat PC12 cell death assessed as upregulation of Lck gene expression at 1 to 10 uM preincubated for 1 hr followed by MPP+ addition and measured after 24 hrs by RNA sequencing analysis relative to control; assay type: functional; conditions: dose 1-10 µM; time 25 hrs
[7] = tested on: PC-12; test: Neuroprotective activity against MPP+-induced rat PC12 cell death assessed as upregulation of Rps27a gene expression at 1 to 10 uM preincubated for 1 hr followed by MPP+ addition and measured after 24 hrs by RNA sequencing analysis relative to control; assay type: functional; conditions: dose 1-10 µM; time 25 hrs
[8] = tested on: PC-12; test: Neuroprotective activity against MPP+-induced rat PC12 cell death assessed as upregulation of Scn4b gene expression at 1 to 10 uM preincubated for 1 hr followed by MPP+ addition and measured after 24 hrs by RNA sequencing analysis relative to control; assay type: functional; conditions: dose 1-10 µM; time 25 hrs
[9] = tested on: PC-12; test: Neuroprotective activity against MPP+-induced rat PC12 cell death assessed as upregulation of Cdh1 gene expression at 1 to 10 uM preincubated for 1 hr followed by MPP+ addition and measured after 24 hrs by RNA sequencing analysis relative to control; assay type: functional; conditions: dose 1-10 µM; time 25 hrs
[10] = tested on: PC-12; test: Neuroprotective activity against MPP+-induced rat PC12 cell death assessed as upregulation of Tars2 gene expression at 1 to 10 uM preincubated for 1 hr followed by MPP+ addition and measured after 24 hrs by RNA sequencing analysis relative to control; assay type: functional; conditions: dose 1-10 µM; time 25 hrs
[11] = tested on: PC-12; test: Neuroprotective activity against MPP+-induced rat PC12 cell death assessed as upregulation of Mtr gene expression at 1 to 10 uM preincubated for 1 hr followed by MPP+ addition and measured after 24 hrs by RNA sequencing analysis relative to control; assay type: functional; conditions: dose 1-10 µM; time 25 hrs
[12] = tested on: PC-12; test: Neuroprotective activity against MPP+-induced rat PC12 cell death assessed as upregulation of Rora gene expression at 1 to 10 uM preincubated for 1 hr followed by MPP+ addition and measured after 24 hrs by RNA sequencing analysis relative to control; assay type: functional; conditions: dose 1-10 µM; time 25 hrs
[13] = tested on: PC-12; test: Neuroprotective activity against MPP+-induced rat PC12 cell death assessed as upregulation of Cyp2d4 gene expression at 1 to 10 uM preincubated for 1 hr followed by MPP+ addition and measured after 24 hrs by RNA sequencing analysis relative to control; assay type: functional; conditions: dose 1-10 µM; time 25 hrs
[14] = tested on: PC-12; test: Neuroprotective activity against MPP+-induced rat PC12 cell death assessed as upregulation of Nat1 gene expression at 1 to 10 uM preincubated for 1 hr followed by MPP+ addition and measured after 24 hrs by RNA sequencing analysis relative to control; assay type: functional; conditions: dose 1-10 µM; time 25 hrs
[15] = tested on: PC-12; test: Neuroprotective activity against MPP+-induced rat PC12 cell death assessed as upregulation of Stat6 gene expression at 1 to 10 uM preincubated for 1 hr followed by MPP+ addition and measured after 24 hrs by RNA sequencing analysis relative to control; assay type: functional; conditions: dose 1-10 µM; time 25 hrs
[16] = tested on: PC-12; test: Neuroprotective activity against MPP+-induced rat PC12 cell death assessed as upregulation of Faslg gene expression at 1 to 10 uM preincubated for 1 hr followed by MPP+ addition and measured after 24 hrs by RNA sequencing analysis relative to control; assay type: functional; conditions: dose 1-10 µM; time 25 hrs
[17] = tested on: PC-12; test: Neuroprotective activity against MPP+-induced rat PC12 cell death assessed as upregulation of Mmp2 gene expression at 1 to 10 uM preincubated for 1 hr followed by MPP+ addition and measured after 24 hrs by RNA sequencing analysis relative to control; assay type: functional; conditions: dose 1-10 µM; time 25 hrs
[18] = tested on: PC-12; test: Neuroprotective activity against MPP+-induced rat PC12 cell death assessed as upregulation of Cryab gene expression at 1 to 10 uM preincubated for 1 hr followed by MPP+ addition and measured after 24 hrs by RNA sequencing analysis relative to control; assay type: functional; conditions: dose 1-10 µM; time 25 hrs
[19] = tested on: PC-12; test: Neuroprotective activity against MPP+-induced rat PC12 cell death assessed as upregulation of Cebpd gene expression at 1 to 10 uM preincubated for 1 hr followed by MPP+ addition and measured after 24 hrs by RNA sequencing analysis relative to control; assay type: functional; conditions: dose 1-10 µM; time 25 hrs
[20] = tested on: PC-12; test: Neuroprotective activity against MPP+-induced rat PC12 cell death assessed as upregulation of Insr gene expression at 1 to 10 uM preincubated for 1 hr followed by MPP+ addition and measured after 24 hrs by RNA sequencing analysis relative to control; assay type: functional; conditions: dose 1-10 µM; time 25 hrs
[21] = tested on: PC-12; test: Neuroprotective activity against MPP+-induced rat PC12 cell death assessed as downregulation of Ugt1a3 gene expression at 1 to 10 uM preincubated for 1 hr followed by MPP+ addition and measured after 24 hrs by RNA sequencing analysis relative to control; assay type: functional; conditions: dose 1-10 µM; time 25 hrs
[22] = tested on: PC-12; test: Neuroprotective activity against MPP+-induced rat PC12 cell death assessed as downregulation of Sesn2 gene expression at 1 to 10 uM preincubated for 1 hr followed by MPP+ addition and measured after 24 hrs by RNA sequencing analysis relative to control; assay type: functional; conditions: dose 1-10 µM; time 25 hrs
[23] = tested on: PC-12; test: Neuroprotective activity against MPP+-induced rat PC12 cell death assessed as downregulation of Dmpk gene expression at 1 to 10 uM preincubated for 1 hr followed by MPP+ addition and measured after 24 hrs by RNA sequencing analysis relative to control; assay type: functional; conditions: dose 1-10 µM; time 25 hrs
[24] = tested on: PC-12; test: Neuroprotective activity against MPP+-induced rat PC12 cell death assessed as downregulation of Adora1 gene expression at 1 to 10 uM preincubated for 1 hr followed by MPP+ addition and measured after 24 hrs by RNA sequencing analysis relative to control; assay type: functional; conditions: dose 1-10 µM; time 25 hrs
[25] = tested on: PC-12; test: Neuroprotective activity against MPP+-induced rat PC12 cell death assessed as downregulation of Prorp gene expression at 1 to 10 uM preincubated for 1 hr followed by MPP+ addition and measured after 24 hrs by RNA sequencing analysis relative to control; assay type: functional; conditions: dose 1-10 µM; time 25 hrs
[26] = tested on: PC-12; test: Neuroprotective activity against MPP+-induced rat PC12 cell death assessed as downregulation of Unc13d gene expression at 1 to 10 uM preincubated for 1 hr followed by MPP+ addition and measured after 24 hrs by RNA sequencing analysis relative to control; assay type: functional; conditions: dose 1-10 µM; time 25 hrs

**Q.** Which Activity [1] does the source give for `C=C1CC[C@H]2C(C)(C)[C@@H](O)C[C@@H](O)[C@]2(C)[C@H]1CO` here?
**A.** Non-Toxic

**Q.** What about the viability at 20 µM [2] of the same molecule?
**A.** 71%

**Q.** What about the Activity [3] of the same molecule?
**A.** Active

**Q.** What about the log2FC [4] of the same molecule?
**A.** >0.4

**Q.** And the log2FC [5]?
**A.** >0.4

**Q.** And the log2FC [6]?
**A.** >0.4

**Q.** What about the log2FC [7] of the same molecule?
**A.** >0.4

**Q.** And the log2FC [8]?
**A.** >0.4

**Q.** What about the log2FC [9] of the same molecule?
**A.** >0.4

**Q.** And the log2FC [10]?
**A.** >0.4

**Q.** What about the log2FC [11] of the same molecule?
**A.** >0.4

**Q.** And the log2FC [12]?
**A.** >0.4

**Q.** What about the log2FC [13] of the same molecule?
**A.** >0.4

**Q.** And the log2FC [14]?
**A.** >0.4

**Q.** And the log2FC [15]?
**A.** >0.4

**Q.** And the log2FC [16]?
**A.** >0.4

**Q.** And the log2FC [17]?
**A.** >0.4

**Q.** And the log2FC [18]?
**A.** >0.4

**Q.** And the log2FC [19]?
**A.** >0.4

**Q.** And the log2FC [20]?
**A.** >0.4

**Q.** And the log2FC [21]?
**A.** >0.4

**Q.** What about the log2FC [22] of the same molecule?
**A.** >0.4

**Q.** What about the log2FC [23] of the same molecule?
**A.** >0.4

**Q.** What about the log2FC [24] of the same molecule?
**A.** >0.4

**Q.** What about the log2FC [25] of the same molecule?
**A.** >0.4

**Q.** What about the log2FC [26] of the same molecule?
**A.** >0.4
